Read-outs that look alike come from different tables or passages of the source. Where no end group is shown, it is not given here.
What was measured:
[1] = in 4 hours; cited from earlier work
[2] = clinical dose, human volunteers; cited from earlier work
BALB/c mice [3] = test: Multidose cumulative toxicity, mouse survival; format: in vivo; details: repeated maximum sublethal doses
[4] = Single-dose in vivo toxicity, LD50 determination; parameters: species or system mouse; details: BALB/c, mouse, in vivo, ip
[5] = tested on: panel of 30 type cultures; test: I_score ranking from the MICs of 30 type cultures; details: number of cultures inhibited with the lowest MIC among the five peptides
A. baumannii (P1270) [6] = test: Time-kill curves in ex vivo whole human blood; details: in 60 min; Ω76 32 mg/liter, colistin 5 mg/liter
[7] = cited from earlier work
BALB/c mice [8] = test: Single-dose in vivo toxicity, LD50 determination; parameters: species or system mouse
[9] = clinical dose, mouse serum; cited from earlier work
BALB/c mice [10] = test: Kidney and liver histopathology after multidose treatment; format: in vivo, mouse; details: after 11 maximum sublethal doses
A. baumannii (P1270) [11] = test: Radiolabeled phosphate leakage radioassay; format: cell-based; details: in 60 min; Ω76 32 mg/liter, colistin 5 mg/liter
[12] = cited from earlier work; remark: listed apart in the source
[13] = young patient cohort, Walter Reed Army Medical Center

## C[C@@H](O)[C@H]1C(=O)N2C(C(=O)O)=C(S[C@@H]3CN[C@H](C(=O)N(C)C)C3)[C@H](C)[C@H]12 [meropenem]
[1]
  CFU reduction: 100 fold
[2]
  time above MIC concentrations in serum: 5 h

## H-GIGKFLKKAKKFGKAFVKILKK-NH2 [Pexiganan]
BALB/c mice [3]
  mortality in mice: 100%
[4]
  LD50 at 5 days: 60 mg/kg

## IKALGKKLRKGKKKIGKKVK [Ω93]
[5]
  I_score: 1

## colistin
BALB/c mice [3]
  mortality in mice: 50%
A. baumannii (P1270) [6]
  CFU reduction: 32 fold
[7]; Korean elderly patient cohort, treated for ≥72 hours
  acute kidney injury: 54.6%
[7]; Turkish elderly patient cohort
  acute kidney injury: 46.1%
[7]; [13]
  acute kidney injury: 45%
  cessation of treatment due to nephrotoxicity: 21%
BALB/c mice [8]; intraperitoneal, monitored 5 days, linear interpolation
  LD50 (median lethal dose): 30 mg/kg
BALB/c mice [8]; intraperitoneal, single dose
  maximum sublethal dose: 16 mg/kg
BALB/c mice [8]; single dose of 32 mg/kg
  mortality (mice): 3 of 5
[9]
  time above MIC concentrations in serum: 100 min
BALB/c mice [10]
  kidney histology: extensive renal damage
  liver histology: displaying no damage
A. baumannii (P1270) [11]
  intracellular phosphate lost: 25%

## gramicidin S
[12]
  hemolytic properties: display hemolytic properties

## lactoferrampin
[12]
  hemolytic properties: display hemolytic properties

## melittin
[12]
  hemolytic properties: display hemolytic properties

Source: PMC6656545 (Science Advances, 2019)
